Values quoted from earlier work, collected in patent publication US20250375404A1, “AN ORODISPERSIBLE PHARMACEUTICAL COMPOSITION OF BACLOFEN AND ITS PROCESS OF PREPARATION” (NOVUMGEN LIMITED, priority 2022, published 2025).

Details: in vivo

NCC(CC(=O)O)c1ccc(Cl)cc1 (stereo not shown) [Baclofen]
Absorption from the gastro-intestinal tract: rapidly and completely absorbed
